# Where “and” joins values, the source holds several entries; their conditions need not be identical. Equal values may be shown once.
# Tested on: advanced solid tumors
# Test: Efficacy assessment by RECIST 1.1 (best response, ORR, DCR, duration of response)
# Format: in vivo, human
# Parameters: partial_response_date (time at which PR was documented) / bestchange (best change of target lesions, Figure 3): unit not given here
# Conditions: for bestchange (best change of target lesions, Figure 3): one value per patient; for time_on_study: individual patients
# Procedure: Computed tomography of chest, abdomen, and pelvis was performed at baseline and every 8 weeks and as clinically indicated. All patients who had at least one post-baseline scan were included in efficacy analyses; patients with the non-target disease only were assessed for non-CR/non-PD and PD. Patients were evaluated for CR, PR, SD, or PD as defined by RECIST 1.1[23]. The objective response rate (ORR = CR+PR) and disease control rate (DCR = CR + PR + SD ≥ 6 months) are reported. Duration of response was defined as the time from when CR or PR was first documented until the first date that progressive disease was objectively documented or the time of the last disease assessment.
# [1] = BRCA1/2, PALB2 or TP53 germline or somatic mutations
# [2] = BRCA1/2 or PALB2 germline or somatic mutations
# [3] = dose_level 2, Breast, patient 400006
# [4] = dose_level 4, Ovarian, patient 400035
# [5] = dose_level 8, Breast, patient 400012
# [6] = dose_level 9, Breast, patient 400030
structure (smiles),measurement,setting,value
Cc1cnc(CNC(=O)c2c(=O)c3ccc(N4CCCN(C)CC4)nc3n3c2sc2ccccc23)cn1 [CX-5461],"Best Response Partial Response (PR), N patients",All treated patients N=40,4
same,"Best Response Progressive Disease (PD), N patients",All treated patients N=40,21
same,"Best Response Stable Disease (SD), N patients",All treated patients N=40,11
same,"Response Duration Median (range), SD","All treated patients N=40, range 2.3-10.9",3.6 Mo.
same,"Response Duration Median (range), PR","All treated patients N=40, range 5.5-8.2",6.5 Mo.
same,"Best Response Partial Response (PR), N patients",[1],4
same,"Best Response Progressive Disease (PD), N patients",[1],15
same,"Best Response Stable Disease (SD), N patients",[1],7
same,"Response Duration Median (range), PR",[1],6.5 (5.5-8.2) Mo.
same,"Response Duration Median (range), SD",[1],3.5 (3-9.2) Mo.
same,"Best Response Partial Response (PR), N patients",[2],3
same,"Best Response Progressive Disease (PD), N patients",[2],12
same,"Best Response Stable Disease (SD), N patients",[2],7
same,"Response Duration Median (range), PR",[2],6.3 (5.5-6.8) Mo.
same,"Response Duration Median (range), SD",[2],3.5 (3-9.2) Mo.
same,"bestchange (best change of target lesions, Figure 3)",DOSE_LEV 0,27.9 and 20.3 and 4.4
same,"bestchange (best change of target lesions, Figure 3)",DOSE_LEV 1,13.1 and 6 and 1.4 and -27.5
same,"bestchange (best change of target lesions, Figure 3)",DOSE_LEV 2,-66.7 and 51.2 and 47.1
same,"bestchange (best change of target lesions, Figure 3)",DOSE_LEV 3,18.9 and 4 and 74.8
same,"bestchange (best change of target lesions, Figure 3)",DOSE_LEV 4,-43.4 and 50.8 and 41.7
same,"bestchange (best change of target lesions, Figure 3)",DOSE_LEV 5,17.1 and 6.4
same,"bestchange (best change of target lesions, Figure 3)",DOSE_LEV 6,-12.9 and -19.4 and 54
same,"bestchange (best change of target lesions, Figure 3)",DOSE_LEV 7,36.2 and 20.5 and 9.7
same,"bestchange (best change of target lesions, Figure 3)",DOSE_LEV 8,23.1 and 10.8 and 5.6 and 0 and -62.5 and 46.6
same,"bestchange (best change of target lesions, Figure 3)",DOSE_LEV 9,7.7 and -50
same,"Best Response Progressive Disease (PD), N patients",Prior PARP Inhibitor N=8,6
same,"Best Response Stable Disease (SD), N patients",Prior PARP Inhibitor N=8,1
same,"Best Response Partial Response (PR), N patients",Prior Platinum N=32,2
same,"Best Response Progressive Disease (PD), N patients",Prior Platinum N=32,18
same,"Best Response Stable Disease (SD), N patients",Prior Platinum N=32,8
same,"Responses observed, share of patients","abstract, primarily in patients with defective homologous recombination",14%
same,ORR,"all treated, 4/40, 95% CI: 2.8–23.7",10%
same,ORR,"breast, ovarian, pancreas tumor types, 4/29, 95% CI: 3.9–31.7%",14%
same,time_on_study,dose_level 0 (50 mg/m^2 Day 1 & 8),4.5667 months and 3.9425 months and 2.037 months and 1.8398 months
same,time_on_study,dose_level 1 (100 mg/m^2 Day 1 & 8),1.1499 months and 5.5195 months and 3.2526 months
same,time_on_study,dose_level 2 (150 mg/m^2 Day 1 & 8),10.4476 months and 1.1828 months and 0.7228 months and 0.6899 months
same,partial_response_date (time at which PR was documented),[3],1.643
same,partial_response_duration,[3],6.275 months
same,time_on_study,dose_level 3 (200 mg/m^2 Day 1 & 8),7.3265 months and 1.1828 months and 0.6899 months and 0.46 months
same,time_on_study,dose_level 4 (250 mg/m^2 Day 1 & 8),14.7187 months and 1.8398 months and 1.807 months
same,partial_response_date (time at which PR was documented),[4],6.407
same,partial_response_duration,[4],8.246 months
same,time_on_study,dose_level 5 (325 mg/m^2 Day 1 & 8),1.2485 months and 1.1828 months and 1.0185 months
same,time_on_study,dose_level 6 (475 mg/m^2 Day 1 & 8),11.039 months and 3.8768 months and 1.8398 months
same,time_on_study,"dose_level 7 (325 mg/m^2 Day 1, 8 & 15)",1.8398 months and 1.807 months and 0.8871 months
same,time_on_study,"dose_level 8 (475 mg/m^2 Day 1, 8 & 15)",10.809 months and 7.3922 months and 2.1355 months and 2.0698 months and 0.9199 months
same,partial_response_date (time at which PR was documented),[5],3.45
same,partial_response_duration,[5],6.801 months
same,time_on_study,"dose_level 9 (650 mg/m^2 Day 1, 8 & 15)",7.8193 months and 2.9897 months and 1.6099 months and 1.577 months and 1.0185 months
same,partial_response_date (time at which PR was documented),[6],1.708
same,partial_response_duration,[6],5.487 months
same,objective responses in patients who had received prior platinum,in vivo,2/32
same,patients with durable SD (≥6 months),of 11 SD,4
same,"Objective response (all PR), patients","of 32 evaluable patients, best response in target lesions",4
same,shrinkage in target lesions,"one patient, gBRCA2-related pancreatic cancer, best response SD",13%
same,best response,"one patient, metastatic breast cancer, germline PALB2 frameshift mutation",confirmed PR

# From PMC9232501, “Results of the phase I CCTG IND.231 trial of CX-5461 in patients with advanced solid tumors enriched for DNA-repair deficiencies” (Nature Communications, 2022)
